# Measured values: patent US20110311990A1, “TETRANOR-PGEM/PGAM SPECIFIC IMMUNOGENS, ANTIBODIES, TRACERS, ASSAY KITS AND METHODS FOR MAKING SAME” (Cayman Chemical Company, Incorporated, priority 2010, published 2011)
# Legend:
# [1] = humans; cited from earlier work
# tetranor-PGAM antibody = assay: Cross-reactivity testing of tetranor-PGAM antibody (polyclonal antiserum) by competitive EIA; type: binding, rabbit; details: percent cross-reactivity = IC50 of tetranor-PGAM / IC50 of test compound x 100; Example 3, antiserum raised with tetranor-PGAM-KLH immunogen
# Protocol: (§1) Rabbit immunizations were performed by Robert Sargeant Antibodies (655 Ash Street, Ramona, Calif. 92065) as follows: Male New Zealand White Rabbits 9-10 weeks of age, were immunized with Complete Freund's Adjuvant (CFA) initially, followed by Incomplete Freund's Adjuvant (IFA) for all subsequent injections. Immunogen 3 (200 μg; prepared according to Step A of this Example) was injected for the first immunization and 100 μg for boosts. The immunogen was diluted to one milliliter with sterile saline and combined with one milliliter of the appropriate adjuvant. The antigen and adjuvant were mixed thoroughly to form a stable emulsion which is injected subcutaneously. Blood was collected from the central ear artery and allowed to clot and retract. The serum was decanted and clarified by centrifugation before freezing.
# (§2) Antisera (AS) from multiple bleeds from multiple rabbits were screened by titration on a 96-well microplate with detection of specific Ab based on its ability to bind the tetranor-PGAM-AChE conjugate (Tracer 4, diluted 1:1000). The next screen consisted of a sensitivity screen selecting for AS with a suitable detection limit. The next screen excluded AS with unacceptably high cross-reactivity (experiment described below) with parent metabolites, tetranor-PGFM, and tetranor-PGDM. The final screen consisted of urinary measurements to confirm normal biological levels of tetranor-PGAM, and recovery experiments. Only one AS passed all screens.
# (§3) To determine cross-reactivity of an antibody, set up the standard curve using optimal tracer and Ab dilutions according the kit instructions. Tetranor-PGAM was diluted to 10 ng/ml for the first point in the standard curve and diluted 2.5-fold serially 7 times. First standard dilutions (10 μg/ml) of tetranor-PGDM, tetranor-PGEM, and tetranor-PGFM were prepared and 7 additional 6-fold serial dilutions were performed. IC50s of all compounds were determined and each percent cross-reactivity (% XR) values of the potentially cross-reactive compounds was determined by dividing the IC50 of tetranor-PGAM by the IC50 of the test compound and multiplying by 100. See the chart below for determined % XR values.
# [2] = system: tetranor-PGEM EIA Antiserum; assay: Cross-reactivity testing of tetranor-PGEM antibody (polyclonal antiserum) by competitive EIA; type: binding, rabbit; details: for Cross-reactivity (% XR): Specificity of the tetranor-PGEM EIA Antiserum, Example 4 kit performance characteristics; for % XR: percent cross-reactivity = IC50 of tetranor-PGEM / IC50 of test compound x 100, Example 2, antiserum raised with tetranor-PGEM-KLH immunogen
# Protocol: as §1, with “1” for “3”, “prepared in Step A, Procedure 1 of this Example; alternatively, Immunogen 1 A, which was prepared in Step A, Procedure 1A of this Example, has been used to produce antiserum” for “prepared”, “to” for “to Step A of”, “immunization method)” for “Example)”
# as §2, with “tetranor-PGEM-AChE” for “tetranor-PGAM-AChE”, “(diluted” for “(Tracer 4, diluted”, “tetranor-PGEM,” for “tetranor-PGAM,”, “experiments.” for “experiments. Only one AS passed all screens.”
# as §3, with “Tetranor-PGEM” for “Tetranor-PGAM”, “tetranor-PGJM, tetranor-PGAM,” for “tetranor-PGEM,”, “tetranor-PGEM” for “tetranor-PGAM”
SMILES,infused dose of PGE2 that appears as tetranor-PGEM in the urine [1],% XR (tetranor-PGAM antibody),Cross-reactivity (% XR) [2],% XR [2]
CCCCC[C@H](O)/C=C/[C@H]1[C@H](O)CC(=O)[C@@H]1C/C=C\CCCC(=O)O [PGE2],About 15%,–,–,–
O=C(O)CCCCC(=O)CC[C@H]1C=CC(=O)[C@@H]1CCC(=O)O [tetranor-PGAM],–,100%,"2,034%","2,034%"
O=C(O)CCCCC(=O)CC[C@H]1C(=O)C[C@H](O)[C@@H]1CCC(=O)O [tetranor-PGDM],–,5.3%,1.5%,1.5%
"O=C(O)CCCCC(=O)CC[C@H]1[C@H](O)CC(=O)[C@@H]1CCC(=O)O [tetranor-PGEM, 11α-hydroxy-9,15-dioxo-13,14-dihydro-2,3,4,5-tetranor-prostan-1,20-dioic acid]",–,25.1%,100%,100%
O=C(O)CCCCC(=O)CC[C@@H]1[C@@H](CCC(=O)O)[C@@H](O)C[C@H]1O [tetranor-PGFM],–,1.0%,7.8%,7.8%
O=C(O)CCCCC(=O)CC[C@H]1C(=O)C=C[C@@H]1CCC(=O)O [tetranor-PGJM],–,–,27.4%,27.4%
